Test results published in publication PMC5187391, “Structural mechanism for the arginine sensing and regulation of CASTOR1 in the mTORC1 signaling pathway” (Cell Discovery, 2016).

T1: CASTOR1 (Homo sapiens, UniProt Q8WTX7, S111A)
T1 construct: full-length human CASTOR1, N-terminal 6×His-tag
T1 sequence (Q8WTX7 1-329 S111A): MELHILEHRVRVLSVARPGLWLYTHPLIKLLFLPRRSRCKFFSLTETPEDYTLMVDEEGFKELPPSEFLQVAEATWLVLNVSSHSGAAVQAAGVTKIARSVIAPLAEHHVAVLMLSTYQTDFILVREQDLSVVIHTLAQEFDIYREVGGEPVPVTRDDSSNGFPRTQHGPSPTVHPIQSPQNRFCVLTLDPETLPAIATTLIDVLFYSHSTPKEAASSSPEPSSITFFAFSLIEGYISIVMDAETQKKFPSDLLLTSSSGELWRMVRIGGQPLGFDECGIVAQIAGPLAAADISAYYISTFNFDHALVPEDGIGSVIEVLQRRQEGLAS

T2: CASTOR1 (Homo sapiens, UniProt Q8WTX7)
T2 construct: full-length human CASTOR1, N-terminal 6×His-tag (homodimer)
T2 sequence (Q8WTX7 1-329): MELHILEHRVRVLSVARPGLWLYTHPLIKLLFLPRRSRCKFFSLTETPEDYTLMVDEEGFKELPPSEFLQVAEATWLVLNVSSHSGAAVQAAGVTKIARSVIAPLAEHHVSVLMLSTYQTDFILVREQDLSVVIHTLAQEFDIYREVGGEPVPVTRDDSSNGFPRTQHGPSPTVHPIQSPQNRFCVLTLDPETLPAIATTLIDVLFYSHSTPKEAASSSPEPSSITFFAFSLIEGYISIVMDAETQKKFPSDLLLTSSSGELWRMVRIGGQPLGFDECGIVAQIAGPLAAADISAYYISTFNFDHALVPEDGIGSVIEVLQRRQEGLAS

T3: Full-length human Mios with an N-terminal GST tag (human, UniProt Q9NXC5 1-875)
T3 construct: Mios, human, full length, in pGEX4T-1; the methods describe only GST-Mios for the Ni2+-NTA pull-down; also called GST-Mios; purified Mios protein; not shown: GST, N-terminal, kept
T3 sequence (looked up): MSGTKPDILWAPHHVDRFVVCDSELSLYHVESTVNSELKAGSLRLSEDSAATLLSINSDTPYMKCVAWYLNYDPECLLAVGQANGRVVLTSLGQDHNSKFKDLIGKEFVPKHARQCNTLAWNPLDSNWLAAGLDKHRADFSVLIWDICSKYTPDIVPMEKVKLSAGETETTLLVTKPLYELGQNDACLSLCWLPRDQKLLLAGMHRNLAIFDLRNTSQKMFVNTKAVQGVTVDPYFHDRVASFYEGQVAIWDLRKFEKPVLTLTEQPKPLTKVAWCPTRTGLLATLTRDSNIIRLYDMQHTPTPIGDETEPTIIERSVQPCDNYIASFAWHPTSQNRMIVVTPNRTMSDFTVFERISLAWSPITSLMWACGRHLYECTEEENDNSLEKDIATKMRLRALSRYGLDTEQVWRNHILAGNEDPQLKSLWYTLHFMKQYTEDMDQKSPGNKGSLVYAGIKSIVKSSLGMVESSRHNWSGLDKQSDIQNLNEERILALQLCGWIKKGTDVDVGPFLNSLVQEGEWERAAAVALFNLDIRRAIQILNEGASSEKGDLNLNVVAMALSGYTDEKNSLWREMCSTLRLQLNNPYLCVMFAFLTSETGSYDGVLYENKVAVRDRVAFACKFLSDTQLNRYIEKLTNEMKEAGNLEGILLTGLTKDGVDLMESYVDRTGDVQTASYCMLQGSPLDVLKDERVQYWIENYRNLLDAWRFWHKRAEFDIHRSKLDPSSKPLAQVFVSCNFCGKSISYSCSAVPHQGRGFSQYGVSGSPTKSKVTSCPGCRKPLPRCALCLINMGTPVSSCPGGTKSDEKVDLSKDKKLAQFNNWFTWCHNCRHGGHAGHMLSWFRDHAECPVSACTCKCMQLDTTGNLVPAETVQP


Legend:
CASTOR1 [1] = target: T1, CASTOR1; assay: ITC; format: binding
CASTOR1 [2] = target: T2, CASTOR1; assay: ITC; format: binding
[3] = target: the molecule itself; assay: SEC-MALS; 25 °C; about 400 μg protein injected per run; 15 mM Tris-HCl, pH 8.0, 150 mM NaCl, 2 mM DTT; WTC-015S5 column
[4] = target: T3, Full-length human Mios with an …; assay: pull-down; Ni2+-NTA column pull-down: His-CASTOR1 pre-immobilised on the Ni2+-NTA column, GST-Mios (or another purified GATOR2 subunit) added at 4 °C; wash 25 mM Tris, pH 8.0, 300 mM NaCl, 20 mM imidazole; elution with 500 mM imidazole; SDS-PAGE and Coomassie Blue staining; details: both partners purified

Molecule	Kd (CASTOR1 [1]) [µM]	Kd (CASTOR1 [2]) [µM]	stoichiometry N [3]	binding result [4]
N=C(N)NCCC[C@H](N)C(=O)O [arginine]	9.68	2.23	–	–
Full-length human CASTOR1, wild type, N-terminal 6xHis-tag (natural protein, UniProt Q8WTX7 1-329, looked up, CASTOR1, human, full length (residues 1-329 by the domain limits printed in the results); cDNA chemically synthesized, in pET28a; Dimer in the crystal and by SEC-MALS; also called WT CASTOR1; His-CASTOR1; source: E. coli BL21(DE3), purified (Ni2+-NTA, Superdex 200 gel filtration); not shown: His6, N-terminal, kept) MELHILEHRVRVLSVARPGLWLYTHPLIKLLFLPRRSRCKFFSLTETPEDYTLMVDEEGFKELPPSEFLQVAEATWLVLNVSSHSGAAVQAAGVTKIARSVIAPLAEHHVSVLMLSTYQTDFILVREQDLSVVIHTLAQEFDIYREVGGEPVPVTRDDSSNGFPRTQHGPSPTVHPIQSPQNRFCVLTLDPETLPAIATTLIDVLFYSHSTPKEAASSSPEPSSITFFAFSLIEGYISIVMDAETQKKFPSDLLLTSSSGELWRMVRIGGQPLGFDECGIVAQIAGPLAAADISAYYISTFNFDHALVPEDGIGSVIEVLQRRQEGLAS	–	–	2	binds
